What is called inhibition is the relative decrease from the control value, in per cent. As usually defined, the IC50 is the concentration that gives 50% inhibition.

SMILES strings stand for the structures. The source made the active and inactive calls. The calls are words filed in the database; no cut-off is given here.

Consider 15 compounds from ChEMBL document CHEMBL1250510, “2,3-diarylxanthones as strong scavengers of reactive oxygen and nitrogen species: a structure-activity relationship study” (Bioorg Med Chem, 2010).

Format in all cases: functional
Experiment [1] is described as follows: Antioxidant activity assessed as superoxide radical scavenging activity at 200 uM by spectrophotometry.
The nature of experiment [2]: Antioxidant activity assessed as hypocholrous acid scavenging activity by spectrophotometry.
Experiment [3] is described as follows: Antioxidant activity assessed as peroxynitrite scavenging activity by spectrophotometry in presence of NaHCO3.
Experiment [4] in a line: Antioxidant activity assessed as nitric oxide scavenging activity at 200 uM by spectrophotometry.
Experiment [5] is described as follows: Antioxidant activity assessed as peroxynitrite scavenging activity by spectrophotometry in absence of NaHCO3.
The nature of experiment [6]: Antioxidant activity assessed as singlet oxygen scavenging activity at 100 uM by spectrophotometry.
Experiment [7] can be described thus: Antioxidant activity assessed as hydrogen peroxide scavenging activity at 125 uM by spectrophotometry.
Experiment [8] in a line: Antioxidant activity assessed as peroxyl radical scavenging activity assessed as trolox equivalent by spectrophotometry.
The nature of experiment [9]: Antioxidant activity assessed as superoxide radical scavenging activity by spectrophotometry.
Experiment [10] can be described thus: Antioxidant activity assessed as nitric oxide scavenging activity by spectrophotometry.
The nature of experiment [11]: Antioxidant activity assessed as hydrogen peroxide scavenging activity at 250 uM by spectrophotometry.
Experiment [12] can be described thus: Antioxidant activity assessed as singlet oxygen scavenging activity by spectrophotometry.
The nature of experiment [13]: Antioxidant activity assessed as hydrogen peroxide scavenging activity by spectrophotometry.
Experiment [14] is described as follows: Antioxidant activity assessed as peroxynitrite scavenging activity at 50 uM by spectrophotometry in presence of NaHCO3.
Experiment [15] can be described thus: Antioxidant activity assessed as peroxyl radical scavenging activity assessed as trolox equivalent at 1 uM by spectrophotometry.
The nature of experiment [16]: Antioxidant activity assessed as superoxide radical scavenging activity at 25 uM by spectrophotometry.
Experiment [17] can be described thus: Antioxidant activity assessed as peroxynitrite scavenging activity at 50 uM by spectrophotometry in absence of NaHCO3.

For the compound `O=c1c2ccccc2oc2cc(-c3ccc(O)cc3)c(-c3ccccc3)cc12`, the inhibition entry in experiment [1] and in experiment [7] was “inactive” in each case. Also, the concentration for half-maximal inhibition (IC50) in [2] was determined as 53.8 µM; in experiment [3], 2.66 µM; in experiment [5] it was 2 µM; in experiment [6] it was 68.8 µM. In addition, in experiment [4], the inhibition worked out at 41%. The trolox equivalent in experiment [8] is 2.08.

For `O=c1c2ccccc2oc2cc(-c3ccc(O)c(O)c3)c(-c3ccc(O)c(O)c3)cc12`, the IC50 in [2] is 1.2 µM; in [3] it was 0.17 µM; in [9], 10.4 µM; in [10] it was 0.39 µM; in experiment [5], 0.33 µM; in [6], 2.5 µM. Moreover, the inhibition in experiment [11] came out at 17%. In addition, the trolox equivalent in experiment [8] was determined as 0.28.

In the case of `O=c1c2ccccc2oc2cc(-c3ccc(O)cc3)c(-c3ccc(O)c(O)c3)cc12`, the IC50 in experiment [2] is 14.7 µM; in [3] it was 0.26 µM; in [9] it was 20.3 µM; in experiment [10], 0.42 µM; in [5] it was 0.78 µM; in [6] it was 3.3 µM. The inhibition in [11] turned out to be 14%. The trolox equivalent in [8] is 0.88.

For the compound `O=c1c2ccccc2oc2cc(-c3ccc(O)cc3)c(-c3ccc(O)cc3)cc12`, the 50% inhibitory concentration (IC50) was found to be 22.4 µM in [2]; 1.72 µM in experiment [3]; 166 µM in experiment [9]; 108 µM in experiment [10]; 0.97 µM in [5]; 58.4 µM in experiment [6]. In [7], the inhibition result is “inactive”. The trolox equivalent in [8] was determined as 2.88.

In the case of `O=S(=O)(O)c1cc(O)c(O)c(S(=O)(=O)O)c1` [TIRON], in experiment [9], the IC50 worked out at 273 µM.

On to `O=c1c2ccccc2oc2cc(-c3ccc(O)c(O)c3)c(-c3ccc(O)cc3)cc12`, for which the IC50 in experiment [2] was 7.5 µM; in [3], 0.22 µM; in experiment [9] it was 31.3 µM; in experiment [10] it was 0.62 µM; in [5] it was 0.89 µM; in experiment [6], 6.8 µM. Further, the inhibition in experiment [11] was 12%. Moreover, the trolox equivalent in experiment [8] came to 0.83.

In the case of `C[C@@H]1O[C@@H](OC[C@H]2O[C@@H](Oc3c(-c4ccc(O)c(O)c4)oc4cc(O)cc(O)c4c3=O)[C@H](O)[C@@H](O)[C@@H]2O)[C@H](O)[C@H](O)[C@H]1O` [RUTIN], the IC50 in [10] was found to be 2.53 µM.

Turning to `O=C(O)CCCC[C@@H](S)CCS` [DIHYDROLIPOIC ACID], the half-inhibitory concentration (IC50) in experiment [2] turned out to be 2.3 µM.

Take `O=c1c(O)c(-c2ccc(O)c(O)c2)oc2cc(O)cc(O)c12` [QUERCETIN]: the IC50 in experiment [12] was determined as 1.8 µM.

Consider `O=c1c2ccccc2[se]n1-c1ccccc1` [EBSELEN], for which the figures for the 50% inhibitory concentration (IC50) in experiment [3] and in [5] were 0.5 µM and 2.01 µM, respectively.

Take `O=c1c2ccccc2oc2cc(-c3ccccc3)c(-c3ccc(O)cc3)cc12`: the inhibition entry in experiment [1] and in experiment [7] was “inactive” in each case. Moreover, the IC50 in [2] was found to be 72.1 µM; in [3], 1.55 µM; in experiment [10], 175 µM; in experiment [5] it was 1.8 µM; in experiment [6], 80 µM. The trolox equivalent in experiment [8] came out at 1.05.

In the case of `O=c1c2ccccc2oc2cc(-c3ccccc3)c(-c3ccc(O)c(O)c3)cc12`, the IC50 in [2] was 15.7 µM; in experiment [3], 0.4 µM; in experiment [9] it was 28.1 µM; in experiment [10], 1.88 µM; in experiment [5], 0.54 µM; in [6] it was 6 µM. In [11], the inhibition is 9%. For the same compound, the trolox equivalent in experiment [8] turned out to be 0.76.

Regarding `O=C1O[C@H]([C@@H](O)CO)C(O)=C1O` [ASCORBIC ACID], the results for the half-maximal inhibitory concentration (IC50) in [13] and in experiment [8] were 602 µM and 0.22 µM, respectively.

Consider `O=c1c2ccccc2oc2cc(-c3ccc(O)c(O)c3)c(-c3ccccc3)cc12`, for which the IC50 in [2] stood at 10.8 µM; in [3], 0.37 µM; in [9] it was 76 µM; in experiment [10], 1.22 µM; in [5], 0.67 µM; in experiment [6], 4.5 µM. The inhibition in experiment [11] came out at 9%. Also, the trolox equivalent in [8] came out at 0.84.

Consider `O=c1c2ccccc2oc2cc(-c3ccccc3)c(-c3ccccc3)cc12`, for which the IC50 in experiment [2] was found to be 155 µM. Moreover, the inhibition in experiment [14] was 29%; in experiment [4], 39%; in [6], 27%; in experiment [17], 48%. For the same compound, the inhibition entry in [15], in experiment [16] and in experiment [7] was “inactive” each time.
